Patent publication US20080145439A1, “NA[…] FORMULATIONS” (NEUROSYSTEC CORPORATION, priority 2006, published 2008)

What was measured:
Assay type in all cases: physicochemical
[1] = Water solubility of gacyclidine forms
From the text: (§1) However, in polymeric containers or in the presence of excess precipitated drug, the apparent pKA is perturbed to lower values due to interaction of the basic form of the drug with polymeric surfaces or its own insoluble precipitate. In the conjugate acid form, gacyclidine is extremely water soluble. Solutions of greater than 1 molar (M) concentration can be prepared from the hydrochloride salt. However, solutions of the acid form of the drug are thermally unstable and subject to acid-catalyzed decomposition to give stoichiometric piperidine (1 mole per mole of drug lost) and multiple other organic products.

[2] = Thermal decomposition / stability of gacyclidine in solution; conditions: for decomposition rate: 54° C.; for Time for 10% Loss: Ringer's Lactate
[3] = Apparent pKA of gacyclidine in aqueous solution
From the text: as §1

[4] = Binding (loss) of gacyclidine to silicone; conditions: room temperature, pH 6, 100 μM gacyclidine solution; depends on time and temperature of exposure
From the text: Delivery of gacyclidine in such a manner presents numerous challenges, however. Various characteristics of gacyclidine are discussed in more detail below. […] Specifically, catheters, drug reservoirs, pumps, anti-bacterial filters and other components of drug delivery systems are typically fabricated from polymers approved for human implantation.

C[C@H]1CCCC[C@@]1(c1cccs1)N1CCCCC1.Cl [Gacyclidine Hydrochloride Salt, Gacyclidine]
solubility in water (concentration of clear solution) [1]: greater than 1 M
solubility in water (concentration of clear solution) ([1]; listed as hydrochloride salt of gacyclidine): > 1000 mM
decomposition rate ([2]; 10 mM HCl): 0.52 day⁻¹
Time for 10% Loss ([2]; 37° C., pH 5.5): 3.7 ± 0.1 days
Time for 10% Loss ([2]; 37° C., pH 6.0): 3.82 ± 0.03 days
Time for 10% Loss ([2]; 37° C., pH 7.4): 6.1 ± 0.4 days
Time for 10% Loss ([2]; 37° C., pH 7.4, listed as gacyclidine in the hydrochloride salt form): 6.1 days
time required for 10% loss ([2]; 37° C., slightly acidic conditions): 3.8 days

CC1CCCCC1(c1cccs1)N1CCCCC1 (centres unmarked) [Gacyclidine]
temperature dependence of apparent pKA [3]: −0.016 ΔpKA/° C.
apparent pKA in glass vials higher than in polypropylene ([3]; 37° C., 1 mM gacyclidine): about 0.7 pH units
apparent pKA ([3]; room temperature, glass containers): 7.4
apparent pKA (from residual gacyclidine in solution) ([3]; room temperature, 0.1 M hydrochloride salt diluted into buffered aqueous solution to 1 mM, glass or polypropylene vials): 6.7
gacyclidine retained by silicone [4]: up to 60%
pH above which precipitation is observed ([1]; 0.1 M hydrochloride salt diluted into buffered aqueous solution to 1 mM): > 7 pH

CC1CCCCC1(c1cccs1)N1CCCCC1 (centres unmarked) [basic form of gacyclidine, Gacyclidine]
solubility in water ([1]; above pH 9): < 0.002 mM
decomposition rate ([2]; 1 mM NaOH): 0.0013 day⁻¹
stability relative to the conjugate acid form ([2]; from decomposition rates at 54° C.): 200-400 times
